Assay results published in patent US12285402B2, “Compositions and methods for treating pulmonary disorders” (GNT Pharma Co., Ltd., priority 2021, dated 2025).

Experiments:
OVA-challenged mice = assay: OVA-induced mouse asthma model; format: in vivo, Balb/C mice
Experimental: Seven-week-old female Balb/C mice were sensitized by intraperitoneal injection (IP, 200 μL/mouse) of 100 μg OVA complexed with aluminum potassium sulfate on days 0, 7, and 14. On days 26, 27, and 28, mice were challenged with 5% aerosolized OVA in 48 mL sterile phosphate-buffered saline (PBS). The control group received sterile PBS with aluminum potassium sulfate via the IP route on days 0, 7, 14, and 48 mL of aerosolized sterile PBS on days 26, 27, and 28. Mice in the ATPB group were orally administered 10 mg/kg bid ATPB on days […], 27, 28, and 29.
(§1) Rats and mice were sacrificed, and BALF was obtained by cannulating the trachea and lavage three times with 2 mL DPBS. BALF cells were centrifuged at 1000×g for 10 min at 4° C. The supernatants were collected and stored at −80° C. to measure inflammatory factors. The pelleted BALF cells were resuspended in 1 mL PBS and quantified using a hematology analyzer (Mindray Medical International Ltd., Shenzhen, China).

[1] = tested on: PPE-induced COPD model mice; assay: Porcine pancreatic elastase (PPE)-induced emphysema model, post-treatment; format: in vivo, C57BL/6J mice; conditions: started 3 days after PPE, sacrifice day 21
Experimental: Porcine Pancreatic Elastase (PPE)-induced emphysema model was used to measure the post-treatment effects of ATPB in COPD model mice. C57BL/6J mice were intratracheally injected with PPE (0.8 U per mouse) in PBS via a micropipette. The mice were randomly divided into […]: (A) emphysema group, which was exposed to intratracheal PPE; (B) emphysema+ATPB (5 mg/kg ATPB, PO, bid); (C) emphysema +ATPB (10 mg/kg ATPB, PO, bid); (D) emphysema +roflumilast (10 mg/kg, PO, qd); and (E) emphysema +prednisolone (1 mg/kg, PO, qd). All treatments were started 3 days after the PPE injection. Mice were sacrificed 21 days after the PPE injection.
as §1

[2] = tested on: smoking-induced COPD rats; assay: Rat model of COPD by smoke exposure and intratracheal LPS; format: in vivo; conditions: for IL-6 gene expression in the lungs (RT-PCR) / MCP-1 gene expression in the lungs (RT-PCR) / TNF-α gene expression in the lungs (RT-PCR): FIG. 7, P<0.01 or P<0.05
Experimental: As described previously, the rat model of COPD was established by smoke exposure and intratracheal instillation of lipopolysaccharide (LPS). Experimental rats, including the COPD and drug-treated groups (10 mg/kg ATPB), underwent whole-body exposure to tobacco smoke from 10 cigarettes in a tobacco smoke chamber (90×40×30 cm, made of Plexiglas) twice a day with 2-hour smoke-free intervals, every day for 12 weeks.
Animals from the two smoke-exposed groups were administered 180 μg/180 μL of LPS solution intratracheally on two occasions, on the first and 14th days of tobacco smoke exposure. Additionally, rats in the ATPB group were orally administered ATPB (10 mg/kg ATPB). All rats were sacrificed on the 91st day.
as §1
Total RNA from the lung tissue was extracted using TRIzol reagent (Invitrogen) according to the manufacturer's instructions. cDNA was synthesized using a cDNA Synthesis Kit (Life Technologies). SYBR Green Master Mix (Thermo Fisher) was used for PCR amplification on a StepOnePlus Real-Time PCR System (Applied Biosystems, Foster City, Calif., USA).
The lungs of the rats were removed at week 12 and fixed in 10% neutral buffered formalin for histopathological analysis. Formalin-fixed tissues were embedded in paraffin, sectioned at […], and stained with hematoxylin and eosin (HE) and Alcian blue-periodic acid-Schiff (AB-PAS) to reveal histopathological lesions.

[3] = ATPB 10 mg/kg bid oral, vs OVA-challenged mice, FIG. 2
[4] = ATPB 10 mg/kg bid oral, vs vehicle group, FIG. 3
[5] = ATPB 10 mg/kg, vs OVA-challenged mice, FIG. 4
[6] = ATPB 10 mg/kg, vs COPD rats, FIG. 6

## CC(=O)Oc1ccc(NCCc2ccc(C(F)(F)F)cc2)cc1C(=O)O [ATPB, 2-acetoxy-5-[2-(4-trifluoromethyl-phenyl)-ethylamino]-benzoic acid]
OVA-challenged mice; [3]
  IL-4 production in BALF (ELISA): significantly downregulated
  IL-5 production in BALF (ELISA): significantly downregulated
OVA-challenged mice; ATPB 10 mg/kg bid oral, vs OVA-challenged mice, serum 24 h after last OVA challenge
  production of IgE in the serum (ELISA): significantly reduced
OVA-challenged mice; [4]
  EO (eosinophil) cell count in BALF: markedly reduced
  LY (lymphocyte) cell count in BALF: markedly reduced
  MO (monocyte) cell count in BALF: markedly reduced
  WBC cell count in BALF: markedly reduced
OVA-challenged mice; [5]
  cell infiltration into peribranchial lung lesions (H&E staining): notably downregulated
  mucus hypersecretion in the bronchial airways (PAS staining): attenuated
OVA-challenged mice; after last OVA challenge, FIG. 3 legend
  OVA-induced inflammatory cell counts in BALF: significantly reduced
OVA-challenged mice; mouse asthma model
  OVA-induced eotaxin production: attenuated
OVA-challenged mice; serum 24 h after last OVA aerosol challenge, FIG. 1
  OVA-specific IgE levels in serum (ELISA): significantly lowered
[1]; 10 mg/kg ATPB PO bid, vs vehicle, FIG. 8, P<0.05
  number of WBC in BALF: significantly reduced
[2]; ATPB 10 mg/kg oral, LPS and chronic smoking, 12 weeks, vs vehicle group, FIG. 5
  number of WBCs in BALF: markedly reduced
[2]; ATPB 10 mg/kg oral, vs COPD group, FIG. 6
  alveolar sacs and alveolar spaces enlargement (H&E lung histopathology): relieved
[2]; [6]
  goblet cell proliferation (PAS+ cells): decreased
  mucous secretion (PAS staining): reduced levels
[2]; vs COPD group
  IL-6 gene expression in the lungs (RT-PCR): decreased
  MCP-1 gene expression in the lungs (RT-PCR): decreased
  TNF-α gene expression in the lungs (RT-PCR): decreased

## C[C@]12C=CC(=O)C=C1CC[C@@H]1[C@@H]2[C@@H](O)C[C@@]2(C)[C@H]1CC[C@]2(O)C(=O)CO [prednisolone, reference compound]
[1]; prednisolone 1 mg/kg PO qd, FIG. 8
  number of WBC in BALF: Neither roflumilast nor prednisolone reduced the WBC count
[2]; vs COPD group
  IL-6 gene expression in the lungs (RT-PCR): decreased
  MCP-1 gene expression in the lungs (RT-PCR): decreased
  TNF-α gene expression in the lungs (RT-PCR): decreased

## O=C(Nc1c(Cl)cncc1Cl)c1ccc(OC(F)F)c(OCC2CC2)c1 [roflumilast]
[1]; roflumilast 10 mg/kg PO qd, FIG. 8
  number of WBC in BALF: Neither roflumilast nor prednisolone reduced the WBC count
